The values below come from patent US20020176820A1, “Functional expression of, and assay for, functional cellular receptors in vivo” (The Trustees of Columbia University, priority 1997, published 2002).

Holding throughout (type): cell-based
Experiment [1] has as its target T1, rat I7 odorant receptor (Rattus norvegicus, UniProt P23270).
T1 construct: expressed in transfected cells; host or cells: rat (Sprague-Dawley) olfactory sensory neurons infected in vivo with recombinant adenovirus AdexCAG-I7-IRES-GFP
T1 sequence (P23270 1-327): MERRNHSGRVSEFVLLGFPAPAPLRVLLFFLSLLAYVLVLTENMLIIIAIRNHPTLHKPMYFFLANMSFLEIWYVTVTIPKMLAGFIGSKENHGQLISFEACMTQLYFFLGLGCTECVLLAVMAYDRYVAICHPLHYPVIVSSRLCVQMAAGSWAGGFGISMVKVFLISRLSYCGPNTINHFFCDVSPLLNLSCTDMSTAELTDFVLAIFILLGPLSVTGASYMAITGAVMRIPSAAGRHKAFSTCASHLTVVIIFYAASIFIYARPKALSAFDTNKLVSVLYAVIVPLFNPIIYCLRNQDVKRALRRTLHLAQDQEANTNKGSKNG
In words: Electro-olfactogram (EOG) recording from AdexCAG-I7-IRES-GFP infected rat olfactory epithelium. The following applies: for change of EOG odorant response in I7 virus infected vs uninfected animals: responses normalized to amyl acetate, panel of 74 odorants. The protocol: Rats (Sprague-Dawley) of various ages and both sexes were used for these experiments. Under anesthesia (ketamine, 90 mg/kg and xylazine, 10 mg/kg, i.p.), 30 μl of rat Ringer solution (in mM, 135, NaCl; 5, I(Cl; 1, CaCl2; 4, MgCl2; 10, HEPES; pH 7.4) containing the AdexCAG-I7-IRES-GFP at a titer of 3×10^9 pfu/ml, and 0.3% fast green dye was slowly injected through the nostril into the right side of the nasal cavity with a short length of thin plastic tubing. The solution was allowed to remain in the nasal cavity. After recovery, the animals were maintained at room temperature with no other treatment until sacrificed.
(§1) The animal was overdosed with anesthetics (Ketamine and xylazine) and decapitated. The head was cut open sagittally and the septum was removed to expose the medial surface of the olfactory turbinates (44 this reference is hereby incorporated by reference in its entirety). The right half of the head was mounted in a wax dish filled with rat Ringer. The medial surface of turbinates was face up and exposed to the air. A continuous stream of humidified clean air was gently blown on the turbinates through tubing to prevent tissue from drying. The opening of the tubing was 8 mm in diameter and placed approximately 10 mm from the turbinate surface.
Odorant solutions were prepared by diluting a 0.5 M stock in DMSO with water. All odorant chemicals were purchased from Aldrich, except Lyral and Lilial which were the kind gift of IFF and Harmon & Reimer Inc. Three milliliters of the odorant solution were placed in a 10 ml glass test tube and capped with a silicon stopper. The concentration of volatile odorant in the 7 cc airspace was allowed to equilibrate for more than 1 hour. All solutions were used within 8 hours. Two 18 gauge needles provided the input and output ports for the odorant containing vapor above the solution. For stimulation a 100 ms pulse of the odorant vapor at 9 psi was injected into the continuous stream of humidified air. The pulse was controlled by a Picospritzer solenoid controlled valve (General Valve). Amyl acetate was used as the reference odorant to control for the variability in responses between animals and during long recording sessions, and was delivered on every sixth trial of odorant stimulation. Three tubes of amyl acetate at 10^−3 M liquid concentration were used alternately in each experiment. The odorant stimulus pathway was cleaned by air between each stimulus presentation. The minimum interval between two adjacent stimuli was 1 minute.
The EOG recording electrode was an Ag/AgCl wire in a capillary glass pipette filled with rat Ringer solution containing 0.6% agarose. The electrode resistance was between 0.5 and 1 MΩ. The recording pipette was placed on the surface of the olfactory epithelium and connected to a differential amplifier (DP-301, Warner Instrument). Placement of the electrode was determined by visualizing GFP fluorescence with a modified stereomicroscope (Kramer Scientific). The EOG potential was observed on a chart recorder, recorded with a DAT tape recorder, and later transferred to computer. For most experiments two electrodes and two amplifiers were used to record EOGs from two different sites of epithelium simultaneously. All experiments were performed at room temperature (22-25° C.).
Odorants were prepared and applied in the following manner. Three milliliters of each odorant solution at a particular concentration were placed in a 10 ml test tube stoppered with a silicone cap, and left for one hour to allow the concentration of volatile odorant in the 7 cc airspace above the solution to equilibrate. Most of the odorants were prepared at a liquid concentration of 10^−2 M to 10^−3 M depending on their relative volatilities. Concentrations of stimulus produced at the olfactory epithelium could not be known, but the system reliably delivered the same amount of stimulus on each trial as there was little variability between responses to successive pulses of the same odorant. […]

The subject of the next experiment is rat olfactory epithelium. The experiment is described as follows: EOG recording from control rat olfactory epithelium (uninfected or infected with GFP-only adenovirus).
Description: as §1
Odorant solutions were prepared by diluting a 0.5 M stock in DMSO with water. All odorant chemicals were purchased from Aldrich, except Lyral and Lilial which were the kind gift of IFF and Harmon & Reimer Inc. Three milliliters of the odorant solution were placed in a 10 ml glass test tube and capped with a silicon stopper. […]
The EOG recording electrode was an Ag/AgCl wire in a capillary glass pipette filled with rat Ringer solution containing 0.6% agarose. […] Placement of the electrode was determined by visualizing GFP fluorescence with a modified stereomicroscope (Kramer Scientific). The EOG potential was observed on a chart recorder, recorded with a DAT tape recorder, and later transferred to computer. […]

Experiment [2] deals with T1, rat I7 odorant receptor. The experiment is described as follows: Whole-cell patch clamp recording from isolated GFP positive olfactory neurons infected by AdexCAG-I7-IRES-GFP. The protocol:
Whole-cell patch clamp recording was performed on isolated cells with detectable fluorescence (FITC filter). Cell dissociation techniques for olfactory epithelium are described in detail elsewhere (45 this reference is hereby incorporated by reference in its entirety); for these experiments we included only papain treatment and mechanical disruption. Recordings were made with the Axopatch 1D amplifier. […] Data were acquired with the PULSE software (HEKA). Odorants were applied by a constant stream perfusion device (SF77, Warner Instruments) or by pressure pulse. The extracellular solution was the rat Ringer described above. All cells were tested to confirm that they had the normal voltage gated currents before investigating their odorant responses.
The holding potential was −60 mV. The currents varied from 60-250 pA in response to a 50 msec pulse of octanal at approximately 10−4 M, values that are within the range previously reported for rat olfactory neurons (28). […] The odorant induced current reversed around 0 mV.
For orientation: In patch-clamp work, channel activity is measured electrically.

“Also recorded” adds a separate entry of the source. Some results are limits rather than exact numbers.

`CCCCCCCCCC=O` [decyl aldehyde]: on rat I7 odorant receptor [1], the “change of EOG odorant response in I7 virus infected vs uninfected animals” value (“change of EOG odorant response” below) was “increased odorant response”.

In the case of `CCCCCCC=O` [heptaldehyde], the “change of EOG odorant response” value on rat I7 odorant receptor [1] is “increased odorant response”.

For `CCCCCC=O` [hexaldehyde], at rat I7 odorant receptor [1], the “change of EOG odorant response” value is “not”.

Take `CCCCCCCCC=O` [nonyl aldehyde]: the “change of EOG odorant response” value on rat I7 odorant receptor [1] is “increased odorant response”.

With `CCCCCCCC=O` [octyl aldehyde], the “difference in response magnitude (octyl aldehyde compared to amyl acetate) in infected versus control epithelia” value on rat I7 odorant receptor [1] (dose-response at various concentrations, FIG. 5c) is reported as no more than 7 fold. The “relative EOG amplitude after moving electrode from high fluorescence to regions with little or no GFP expression” value on rat I7 odorant receptor [1] (infected animals) is “significantly reduced”. In addition, the “response ratio of octyl aldehyde to amyl acetate” value at rat I7 odorant receptor [1] (infected animals, odorant concentration in solution 5×10^−5 M) is 7 times; in the experiment with rat olfactory epithelium (normal (uninfected) animals, 5×10^−5 M in solution), 1. The “EOG response in animals with lower infection rates” value on rat I7 odorant receptor [1] (infection judged by extent of GFP fluorescence) was “comparably smaller”. Further, the “average EOG response in infected vs. uninfected animals” value at rat I7 odorant receptor [1] (normalized to amyl acetate, comparatively high odorant concentrations near saturation) is 1.7 times. For the same compound, the “change of EOG odorant response” value on rat I7 odorant receptor [1] is given as “dramatically greater; also recorded: increased odorant response”. The “EOG response in animals infected with adenovirus containing only the GFP gene” value in the experiment on rat olfactory epithelium (GFP-only adenovirus, same CAG promoter, compared with uninfected animals) is reported as “not different from uninfected animals”. In addition, on rat I7 odorant receptor [2], the “reversal potential of odorant induced current” value is given as “around 0 mV”. The “latency of odorant induced current” value on rat I7 odorant receptor [2] (50 msec pulse at approximately 10−4 M) fell in the range of 100 to 250 ms. Besides, the odorant induced current on rat I7 odorant receptor [2] (50 msec pulse at approximately 10−4 M, holding potential −60 mV) is reported as 60-250 pA. Moreover, the “cells with odorant induced current” value at rat I7 odorant receptor [2] (isolated GFP positive neurons) is listed as 5 of 5.

As for `CCCCC/C=C/C=O` [trans-2-octenal], the “change of EOG odorant response” value on rat I7 odorant receptor [1] is “failed to elicit responses larger than in normal animals”.

As for `CCCCCCCCCCC=O` [undecylic aldehyde], the “change of EOG odorant response” value on rat I7 odorant receptor [1] is “not”.
